For 68 molecules, logP results are on record in the OPERA property sets (Mansouri et al. 2018).

For orientation: logP means the decadic logarithm of the partition coefficient of the neutral form, usually between octanol and water. High values mean higher lipophilicity, low ones lower lipophilicity.

The molecule `O=C(Nc1ccccc1)c1cc(N2CC2)c([N+](=O)[O-])cc1[N+](=O)[O-]` returned a logP of 2.23. In the case of `Cn1nnc2ccccc21` it was 1.13; in that of `CCSc1c(OC)cc(Cc2cnc(N)nc2N)cc1OC`, 1.79; in that of `C=CCN1C(=O)SC(=Cc2ccc([N+](=O)[O-])o2)C1=O`, 2.22.

On to `Cc1ncc([N+](=O)[O-])n1CCCS(C)(=O)=O`, for which the logP was -1. In the case of `Cc1nonc1-c1ccccn1` it was 2.09. As for `CCC(C)C1=Nc2ccc(Cl)cc2S(=O)(=O)N1` (stereo not drawn), the logP came to 2.47. In the case of `CC1C2CCC3C(O)C2(CC(O)C2(O)C1CC(O)C2(C)C)CC3(C)O` (stereo not drawn) it was 1.51; in that of `CN(N=O)C(=O)Oc1cccc2ccccc12`, 2.85; in that of `CCCCCC1(CC)C(=O)NC(=O)N(C)C1=O` (stereo not drawn), 2.45.

Regarding `Cc1[nH]c(=O)n(O)c(=O)c1Br`, the logP was -1.12. With `CCCC1=Nc2cc(Cl)ccc2S(=O)(=O)N1`, the logP is 2.04.

The molecule `CCC(C)NC(=O)C=C(C)c1ccc(Cl)cc1` (stereo not drawn) showed a logP of 3.92. `CSC(C)=NOC(=O)N(C)SN(C)C(=O)c1ccc(Cl)cc1Cl`: the logP turned out to be 3.2. In the case of `COC(=O)[C@@H]1[C@@H](C=C(C)C)C1(C)C` it was 3.76; in that of `NS(=O)(=O)c1ccccc1Cl`, 0.74; in that of `CCOc1ccccc1OC(=O)NC`, 1.24. `O=[N+]([O-])c1cnc(N=C2SCCN2CCO)s1`: the logP came to 1.28. In the case of `CNP(=O)(OC)Oc1ccc(Cl)cc1Cl` (stereo not drawn) it was 2.41. In the case of `CC(=O)N(CC(O)CO)c1c(I)c(C(=O)NCC(O)CO)c(I)c(C(=O)NCC(O)CO)c1I` (stereo not drawn) it was -3.05; in that of `CCOc1cc(Cc2cnc(N)nc2N)cc(OCC)c1C(C)(C)O`, 2.46; in that of `CC(C)(C)C(=O)C(C#N)=NNc1cc(Cl)c(Cl)cc1Cl`, 5.86. In the case of `CCCOn1c(=O)[nH]c(CCC)c(Br)c1=O` it was 1.73. As for `CSCC1=C(C(=O)O)N2C(=O)C(NC(=O)Cc3cccs3)C2SC1` (stereo not drawn), the logP is 1.01.

`COc1nc(-c2ccccc2)c2ccccc2n1` gave a logP of 3.5.

`O=C(COc1ccccc1)N1CCCCC1` registered a logP of 1.81. As for `O=c1nc(-c2ccccc2)c2cc(Br)ccc2[nH]1`, the logP turned out to be 2.71. As to `CCCOn1c(=O)cc(C)[nH]c1=O`, the lipophilicity (logP) was determined as 0.3. In the case of `CC12CCC(=O)C=C1CCC1C3CCC4(CCC(=O)O4)C3(C)CC3OC312` (stereo not drawn) it was 1.89; in that of `CCS(=O)(=O)c1cc(OC)c(OC)c(OC)c1`, 1.05. In the case of `O=CNC=Cc1ccccc1` it was 1.95.

Consider `NC(=O)c1ccc(Cl)nn1`, for which the lipophilicity (logP) is 0. In the case of `CCOC(=O)C(=Cc1ccccc1C)C(C)=O` it was 2.66; in that of `CCOC(=O)C(=Cc1ccc2c(c1)OCO2)C(C)=O`, 2.35; in that of `CCN(CC)CCCNC(=O)c1ccccc1OC`, 1.76. In the case of `COc1ccc(OC(=O)CNC(=O)c2ccccc2)cc1` it was 2.28; in that of `O=NN(CCCl)C(=O)NC1CCC(O)CC1` (stereo not drawn), 1.11; in that of `Clc1cccc(C2NCCS2)c1` (stereo not drawn), 2.04. In the case of `CN(C)CCc1ccsc1` it was 1.94; in that of `CCN1CCN=C1Nc1ncc([N+](=O)[O-])s1`, 2.28. Regarding `COc1cc(Cc2cnc(N)nc2N)cc(OCc2ccccc2)c1OCc1ccccc1`, the logP was 4.09. As for `COC(=O)C(C#N)=NNc1ccccc1C(F)(F)F`, the logP amounted to 3.7.

`NNC(=O)NN=Cc1ccccc1` returned a logP of 0.81.

`O=C(O)COc1cc(F)cc(Cl)c1` came in with a lipophilicity (logP) of 2.2. In the case of `O=C(O)c1cccc(CSc2ccccc2)c1O`, the logP came to 4.28.

In the case of `CCC(C)C(NC(C)=O)C(=O)NC` (stereo not drawn), the logP is 0.14. As to `O=[N+]([O-])c1cnc(N=C2OCCN2CCO)s1`, the logP amounted to 0.43.

Molecule `COc1ccc(OC2OC(CO)C(O)C(O)C2O)cc1` (stereo not drawn) gave a log partition coefficient (logP) of -0.73. In the case of `CCCC(=O)NC(=O)C1CCC1` it was 0.41. In the case of `COc1c(Cl)cc(Cc2cnc(N)nc2N)cc1Cl` it was 2.78; in that of `COc1ccc(Br)c(Cc2cnc(N)nc2N)c1`, 2; in that of `O=[N+]([O-])C=Cc1ccc(O)cc1`, 2.12. In the case of `O=C(NCc1ccccc1O)c1ccccc1` it was 2.55; in that of `COc1ccc(Cc2cnc(N)nc2N)cc1OC`, 0.97; in that of `CC(=O)NNC(=O)c1ccccn1`, -0.57. `CCNC(=O)CNC(=O)C=[N+]=[N-]` returned a logP of -0.62. In the case of `CO[C@@]12[C@@H]3N[C@@H]3CN1C1=C(C(=O)C(Nc3nc(C)c(C)s3)=C(C)C1=O)[C@@H]2COC(N)=O` it was 1.29. In the case of `CCCCCC[n+]1cc(C)cc(C)c1.[I-]` it was -1.19; in that of `CC1=Nc2cc(C)ccc2S(=O)(=O)N1`, 0.74; in that of `COc1cc(Cc2cnc(N)nc2N)ccc1OCc1ccccc1`, 2.66. In the case of `CN(C)C(=O)Oc1ccccc1Br` it was 2.17.

`COC(=O)c1c(OC)cc(Cc2cnc(N)nc2N)cc1OC` displayed a logP of 0.95. Consider `COC1C(Cl)C(Cl)C(OC)C(Cl)C1Cl` (stereo not drawn), for which the logP is 3.15. In the case of `CCOc1cc(Cc2cnc(N)nc2N)cc(OCC)c1C(C)=O` it was 2.04; in that of `COc1cc(Cc2cnc(N)nc2N)c(Br)cc1Br`, 3.17. In the case of `CC(O)Cn1ccnc1[N+](=O)[O-]` (stereo not drawn) it was -0.16; in that of `O=NN(CCF)C(=O)NCCCl`, 0.96; in that of `CN1C(=O)CN=C(c2c(Cl)cccc2Cl)c2cc(Cl)ccc21`, 3.04.
